Patent US8367727B2, “Method of using abscisic acid to treat diseases and disorders” (priority 2006, dated 2013)

Assays:
db/db mice [1] = assay: Intraperitoneal glucose tolerance test (IPGTT) in db/db mice; format: in vivo
Protocol: Experiment 1: mice (n=25) were fed high-fat (>40% energy from fat), isocaloric, isonitrogenous diets containing 0, 100, 200, 400, and 800 mg of a racemic (±) ABA mixture/kg diet for 36 days (Table 1) (Sigma). These doses were chosen based on the standard concentrations of TZDs utilized in the treatment of NIDDM. The mice were weighed and their food intake was recorded daily. On day 36 of the study fasted mice (12 h) were bled through the caudal vein and fasting blood glucose concentrations were determined. To investigate the ability of ABA to normalize glucose concentrations, an intraperitoneal glucose tolerance test (IPGTT) was performed on day 36 on the fasted mice. Briefly, mice were bled at 0, 10, 25, and 45 minutes following the administration of glucose (2 g/kg) for measurement of plasma glucose levels. […] Weights were recorded for WAT, interscapular brown adipose tissue (BAT), and liver.
Experiment 2: The ABA dose utilized (100 mg ABA/kg) was based on the results obtained from the IPGTT of the ABA titration study (i.e., Experiment 1). Mice in experiment 2 were fed high-fat diets containing 0 or 100 mg ABA/kg for 36 days. Their body weights and food intake was recorded daily, and blood was collected on day 36 of the study during an IPGTT. This IPGTT included one additional 100 minutes time point. […] Weights were recorded for abdominal WAT, BAT, and liver.

[2] = system: mesenteric lymph node-derived lymphocytes; assay: Proliferation and PGE2 production, mesenteric lymph node-derived lymphocytes; format: cell-based, mice
[3] = system: white adipose tissue (WAT) of db/db mice; assay: WAT histology: adipocyte area and macrophage infiltration; format: in vivo
Source text: (§1) Hepatic and adipose sections were fixed in 10% buffered neutral formalin, embedded in paraffin, cut at thicknesses of 7 microns and later stained with hematoxylin and eosin (H&E) for histological examination of adipocyte hypertrophy and inflammatory lesions. Hepatic sections were scored based on the amount of lipodystrophy observed according to the Nonalcoholic steatohepatitis (NASH) scoring method, with a score of 0 signifying <5% of the cells contain lipid droplets and a score of 4 signifying that >75% of the cells contained lipids and a magnification of 400× (23). The final score was the average of five randomly chosen fields. The area of adipocytes from WAT was analyzed using Sigma Pro® 5.0 software at a magnification of 100×, and macrophage infiltration was determined by averaging the number of macrophages observed in five different fields at 400×.

[4] = system: dextran sodium sulfate (DSS)-induced colitis; assay: DSS-induced colitis in C57BL/6J mice: disease activity, macroscopic scores, histopathology; format: in vivo
Protocol: Six to eight week old C57BL/6J mice (n=20) and were housed at the animal facilities at Virginia Polytechnic Institute and State University in a room maintained at 75° F., with a 12:12 h light-dark cycle starting from 6:00 AM. All experimental procedures were approved by the Institutional Animal Care and Use Committee of Virginia Polytechnic Institute and State University and met or exceeded requirements of the Public Health Service/National Institutes of Health and the Animal Welfare Act. C57BL/6J mice were fed AIN-93G-based diets with or without 100 mg/kg of a racemic ABA mixture for 35 days prior to induction of colitis with water containing 2.5% dextran sodium sulfate (DSS), […] (ICN Biomedicals, Aurora, Ohio). After the DSS challenge mice were weighed on a daily basis and examined for clinical signs of disease associated with colitis (i.e., perianal soiling, rectal bleeding, diarrhea, and piloerection). For the DSS challenge, the disease activity indices and rectal bleeding scores were calculated using a modification of a previously published compounded clinical score (50). Briefly, the disease activity index consisted of a scoring for diarrhea and lethargy (0-3), whereas rectal bleeding consisted of a visual observation of blood in feces and the perianal area (0-4). Mice in the DSS study were euthanized on day 7 of the DSS challenge. On day 7 blood mice were euthanized by CO2 asphyxiation and blood was withdrawn from the heart. Spleen and mesenteric lymph nodes (MLN) were scored based on size and macroscopic inflammatory lesions (0-3), excised, and then crushed to produce single-cell suspensions for flow cytometry.
Colonic sections were fixed in 10% buffered neutral formalin, later embedded in paraffin, and then sectioned (5 μm) and stained with H&E stain for histologic examination. Colons were graded with a compounded histologic score including the extent of (1) lymphocyte infiltration, (2) mucosal thickening, and (3) epithelial cell erosion. The sections were graded with a score of 0-4 for each of the previous categories and data were analyzed as a normalized compounded score.

db/db mice [5] = assay: Liver histology, hepatic steatosis by NASH scoring method; format: in vivo; conditions: day 36, P<0.02
Source text: as §1

MCP-1 promoter = MCP-1 promoter luciferase reporter in 3T3-L1 pre-adipocytes; format: cell-based
Protocol: 3T3-L1 cells (American Type Culture Collection, Manassas, Va.) were grown in 24-well plates in DMEM high glucose medium (Invitrogen, Carlsbad, Calif.) containing 10% fetal bovine serum (FBS) until 60-70% confluence. Before transfection, the medium was changed to 1% FBS. The cells cultured in 24-well plates were co-transfected with 0.8 μg plasmid DNA and 1 ng of pRL reporter control plasmid per well using F-1 transfection reagents (Targeting Systems, Santee, Calif.) according to the manufacturer's protocol. Transfection efficiencies were determined by cotransfecting the cells with a pcDNA™ 3.1/His/lacZ control vector at 24 h. The transfected cells were then treated with either a racemic ABA mixture (12.5 μM; Sigma) or rosiglitazone (1 μM; Cayman Chemicals, Ann Arbor, Mich.) for 24 hours. Designated wells were also treated with the PPAR γ antagonist GW9662 (30 μM; Cayman Chemicals). Transfected cells were harvested in reporter lysis reagent. Luciferase activity, normalized to pRL activity in the cell extracts was determined by using the dual luciferase reporter assay system (Promega, Madison, Wis.) in a TD-20/20 Single-Tube Luminometer (Turner Biosystems, Sunnyvale, Calif.). Relative luciferase activity (RLA) was calculated as a ratio of the chemiluminescence 10 seconds after the Luciferase Assay Reagent II (Promega) was added over the chemiluminescence 10 seconds after the Stop&Glo Reagent (Promega).
To further examine the effect of ABA on MCP-1 transactivation, 3T3-L1 preadipocytes were transfected with a MCP-1 promoter luciferase reporter construct and also cotransfected with a pCMX PPAR γ expression plasmid to increase endogenous PPAR γ activity. Cells were then treated with ABA (12.5 μM), rosiglitazone (1 μM), the PPAR γ antagonist GW9662 (30 μM), or a combination of agonist and inhibitor.

[6] = system: adipose tissue macrophages (ATM); assay: Flow cytometry of adipose tissue macrophage subsets in stromal-vascular fraction of WAT, db/db mice; format: in vivo
[7] = system: lymphocytes derived from the spleen; assay: Anti-CD3-induced proliferation of spleen-derived lymphocytes; format: cell-based; conditions: ABA-fed mice (controls 30.12)
influenza virus antigens = assay: Antigen-specific T cell response after immunization with inactivated influenza virus vaccine; format: cell-based; conditions: ABA-fed mice (controls 5)
[8] = system: PPAR γ and PPAR γ-responsive genes in WAT; assay: Quantitative real-time RT-PCR of white adipose tissue (WAT) of db/db mice; format: in vivo
Source text: Complementary DNA (cDNA) concentrations for β-actin, PPAR γ, PPAR α, PPAR δ, adiponectin, CD36, aP2, and TNF-α were examined by real-time quantitative PCR using and iCycler IQ System and the iQ SYBR green supermix (Bio-Rad). SYBR green I is a general double-stranded DNA intercalating dye and, therefore, may detect nonspecific products and primer/dimers in addition to the amplicon of interest. In order to determine the number of products produced during the real-time PCR, a melting curve analysis was performed on each product. Real-time PCR was used to measure the starting amount of nucleic acid of each unknown sample of cDNA on the same 96-well plate. Results are presented as starting quantity of cDNA (picograms) per microgram of mRNA.

[9] = 100 mg ABA/kg diet, 36 days, P<0.01

CC1=CC(=O)CC(C)(C)C1(O)/C=C/C(C)=C\C(=O)O (racemic) [ABA, abscisic acid]
response in glucose homeostasis during the IPGTT, dose comparison (db/db mice [1]; Experiment 1, 100 mg ABA/kg dose): most favorable response | response to the IPGTT (db/db mice [1]; Experiment 1, day 36): improved response to the IPGTT | glucose levels during IPGTT versus control (db/db mice [1]; Experiment 2, 100 mg ABA/kg diet): significantly lower at every time point up to 100 minutes | prostaglandin E2 (PGE2) production ([2]; ABA feeding): decreased | augmentation of proliferation of mesenteric lymph node-derived lymphocytes ([2]; following ABA feeding): 10 fold | adipocyte size in WAT ([3]; ABA-fed vs control-fed db/db mice): significantly more small adipocytes and fewer hypertrophic adipocytes | macrophages infiltrating WAT ([3]; ABA-fed vs control-fed, P<0.05): significantly lower number of macrophages | disease activity index (DAI) ([4]; 100 mg/kg diet 35 days, then 7 days 2.5% DSS): significantly reduced disease activity index | body weight loss ([4]; DSS challenge, ABA vs control): no significant differences in body weight loss | Epithelial erosion ([4]; colon histology, DSS colitis): significantly reduced | leukocyte infiltration ([4]; colon histology, DSS colitis): significantly reduced | mucosal thickening ([4]; colon histology, DSS colitis): significantly reduced | colonic inflammation, macroscopic score ([4]; day 7 of DSS): significantly reduced colonic inflammation | spleen or MLN macroscopic score ([4]; day 7 of DSS): no significant effect on the spleen or MLN | hepatic steatosis (NASH scoring) (db/db mice [5]): significantly mitigated | MCP-1 promoter activity (MCP-1 promoter; ABA 12.5 μM, rosiglitazone 1 μM, co-transfection with PPAR γ expression vector): significantly enhanced the ability of both ABA and rosiglitazone to inhibit MCP-1 promoter activity | effects on MCP-1 transactivation under cotreatment with antagonist (MCP-1 promoter; plus GW9662 30 μM): significantly inhibited by cotreatment with GW9662 | F4/80hi CD11b+CCR2+ ATM subset ([6]; P=0.006): reduction | F4/80lo ATM ([6]; db/db mice): no effect | F4/80hi macrophage infiltration into WAT ([6]; db/db mice, P=0.05): significantly suppressed | amount of F4/80 on surface of F4/80hi macrophages (MFI) ([6]; vs control diet): significantly lower | stimulation index, anti-CD3-induced proliferation [7]: 8.55 | production of interleukin-2 (IL-2) (influenza virus antigens): 31.67 picograms IL-2/ml of cell supernatant | mRNA expression of PPAR α or PPAR δ ([8]; 100 mg ABA/kg diet, 36 days): no significant differences | WAT expression of CD36 mRNA [8, 9]: significant increase | WAT expression of PPAR γ mRNA [8, 9]: significant increase | WAT expression of aP2 mRNA ([8]; 100 mg ABA/kg diet, 36 days, P<0.02): significant increase | WAT expression of adiponectin mRNA ([8]; 100 mg ABA/kg diet, 36 days, P<0.05): significant increase | TNF-α mRNA expression in WAT ([8]; ABA-fed db/db mice, P<0.05): down-regulated
